In US5705185A, “Transdermal delivery of estradiol and process for manufacturing said device” (priority 1996, dated 1998):

Key:
[1] = test system: enzymatic degradation from estradiol to estrone in human skin; test: inhibition of the estradiol metabolism in human skin; conditions: for % Estradiol Metabolized (E1 *100/E1 + E2): 10% PPG; for Inhibition %: 10% PPG versus control; for Estradiol / Estrone: saturated estradiol in saline + 10% PPG, human skin without stratum corneum, n=3; for % estrone formed (percent of estradiol conversion to estrone): n = 4
[2] = test system: 17-β-hydroxysteroid dehydrogenase; test: purified 17-β-hydroxysteroid dehydrogenase assay, absorbance at 340nm (NADH); type: biochemical; conditions: propylene glycol 10% in volume
Method: Another experimentation in this field was carried out using purified 17-β-hydroxysteroid dehydrogenase, 17-β-estradiol as a substrate and NAD^+ as a cofactor in the control tubes, in sample tubes 10% in volume of propyleneglycol was added. The continuous monitoring of the increase in the absorbance at 340nm generated by the appearance of NADH was the method used. […] Therefore the inhibition of the conversion is no mediated by a denaturalization process of the enzyme, therefore we postulated that the process of inhibition was governed by competition for NAD^+.

[3] = saturation of estradiol in the coating layer; conditions: bad appearance, diminished adhesive properties
[4] = in vitro permeation through mouse skin in diffusion chamber; type: in vitro ADME, Swiss mice; conditions: n = 4
Excerpt: […]. The techniques of this permeation studies is described afterwards.
Furthermore, "in vitro" permeation experiments with abdominal mouse skin and human skin were made using the diffusion chamber that is schematically shown in longitudinal section in FIG. 1.
The diffusion chamber illustrated in FIG. 1 comprises a body having front and rear tubular sections 1 and 2 having respective annular end flanges 3 and 4 by which the sections 1 and 2 are joined together. A sample of skin 5, with attached estradiol delivery device D to be tested facing the rear tubular section 2, is clamped between the flanges 3 and 4 by means of a pinch clamp 6.
The tubular section 1 has an internal chamber 7 with an opening 8 furnished with a glass stopper 9. The tubular section 1 has also a jacket 10 through which warm water can be circulated to maintain the contents of the chamber 7 at the desired temperature. The chamber 7 contains a magnetic bar stirrer 11 which is rotatable by means of a magnetic field applied externally means (not shown) to enable the contents of the chamber 7 to be stirred.
The tubular section 2 has a chamber 12 with an opening 13 furnished with a glass stopper 14.
In the assay, the skin of Swiss mice, shaved 72 hours before the experiments, was employed. Also used was human skin obtained from human skin samples (remnants of plastic surgery) which have been eliminated the adipose tissue by scissors, and then was cut to 500 microns by a dermatome.
[…]. Each experiment was started by loading chamber 7 with 5.5 ml of a receptor solution of sodium lauryl sulfate (0.5%), starting the stirrer 11 and taking samples at pre determined periods of time and the subsequent determination of permeated estradiol (by HPLC).

CC(O)CO (centres unmarked) [Propylene glycol, propylene glycol]
% Estradiol Metabolized (E1 *100/E1 + E2) ([1]; Exp. 1): 7.4%
Inhibition % ([1]; Exp. 1): 66.0%
Estradiol ([1]; Exp. 1): 3.51 nmol/mL
Estrone ([1]; Exp. 1): 0.27 nmol/mL
% Estradiol Metabolized (E1 *100/E1 + E2) ([1]; Exp. 2): 6.55%
Inhibition % ([1]; Exp. 2): 57.2%
Estradiol ([1]; Exp. 2): 2.71 nmol/mL
Estrone ([1]; Exp. 2): 0.19 nmol/mL
propyleneglycol concentration at which enzymatic conversion of estradiol to estrone is minimized ([1]; FIG. 4C): 10 % wt
% estrone formed (percent of estradiol conversion to estrone) ([1]; PG 0.25%): 37.9%
% estrone formed (percent of estradiol conversion to estrone) ([1]; PG 0.5%): 33.6%
% estrone formed (percent of estradiol conversion to estrone) ([1]; PG 1.5%): 26.8%
% estrone formed (percent of estradiol conversion to estrone) ([1]; PG 3%): 20.6%
% estrone formed (percent of estradiol conversion to estrone) ([1]; PG 5%): 16.1%
% estrone formed (percent of estradiol conversion to estrone) ([1]; PG 10%): 9.2%
inhibition of enzymatic degradation of estradiol to estrone ([1]; tests conducted by the applicant): inhibits the enzymatic mechanism that causes degradation of estradiol to estrone
increase in the absorbance at 340nm (NADH) ([2]; 0 min): 0
effect on purified enzyme activity versus control ([2]; 17-β-estradiol substrate, NAD+ cofactor): No differences
increase in the absorbance at 340nm (NADH) ([2]; 1 min): 15
increase in the absorbance at 340nm (NADH) ([2]; 2 min): 30
increase in the absorbance at 340nm (NADH) ([2]; 3 min): 47
increase in the absorbance at 340nm (NADH) ([2]; 4 min): 60
increase in the absorbance at 340nm (NADH) ([2]; 5 min): 72
increase in the absorbance at 340nm (NADH) ([2]; 6 min): 95
increase in the absorbance at 340nm (NADH) ([2]; 7 min): 105
increase in the absorbance at 340nm (NADH) ([2]; 8 min): 113
increase in the absorbance at 340nm (NADH) ([2]; 9 min): 120
increase in the absorbance at 340nm (NADH) ([2]; 10 min): 125
increase in the absorbance at 340nm (NADH) ([2]; 11 min): 128
increase in the absorbance at 340nm (NADH) ([2]; 12 min): 130

C[C@]12CC[C@@H]3c4ccc(O)cc4CC[C@H]3[C@@H]1CC[C@@H]2O [Estradiol, estradiol]
concentration above which estradiol precipitates in the polymeric matrix [3]: above 2.1 wt %
transformation of estradiol in contact with the enzymes of the skin ([1]; permeation through skin): enzymatically oxidazed to estrone
Flux through mouse skin at 24h ([4]; estradiol concentration 1 wt % in coating layer): 1.8 ± 0.29 μg/cm^2 *h
Flux through mouse skin at 24h ([4]; estradiol concentration 1.5 wt % in coating layer): 2.2 ± 0.25 μg/cm^2 *h
Flux through mouse skin at 24h ([4]; estradiol concentration 1.75 wt % in coating layer): 2.8 ± 0.33 μg/cm^2 *h
Flux through mouse skin at 24h ([4]; estradiol concentration 1.8 wt % in coating layer): 3.28 ± 0.41 μg/cm^2 *h
Flux through mouse skin at 24h ([4]; estradiol concentration 2 wt % in coating layer): 3.31 ± 0.45 μg/cm^2 *h
Flux through mouse skin at 24h ([4]; estradiol concentration 2.5 wt % in coating layer): 3.39 ± 0.37 μg/cm^2 *h
